The values below come from PMC9780942, “Antimicrobial Activity and Immunomodulatory Properties of Acidocin A, the Pediocin-like Bacteriocin with the Non-Canonical Structure” (Membranes, 2022).

The test system of one assay is E. coli ML-35p. In kind it is cell-based. Particulars: 24 h. In a few lines: (§1)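 MIC read as the minimum peptide concentration without visible growth, aided by 2 h resazurin (20 µg/mL) when needed. Cells from mid-log cultures (10^6 CFU/mL, 2x MHB or 3% TSB for Listeria) met two-fold bacteriocin dilutions in 0.1% BSA for 24 h at 37 °C with shaking.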
Another assay has as its system A. baumannii XDR CI 2675. The assay is classed as cell-based. Particulars: XDR CI 2675, 24 h. In a few lines:
as §1

A further assay relates to S. aureus 209P. In kind it is cell-based. As to conditions: 24 h. In outline: as §1
The next assay deals with E. coli ATCC 25922. In kind it is cell-based. Particulars: ATCC 25922, 24 h. In outline: as §1
For a further assay, the system named is M. luteus Ac-2229. In kind it is cell-based. As to conditions: Ac-2229, 24 h. In outline: as §1
The test system of another assay is B. subtilis B-886. In kind it is cell-based. As to conditions: B-886, 24 h. In a few lines: as §1
The test system of another assay is E. coli XDR CI 1057. The assay is classed as cell-based. As to conditions: XDR CI 1057, 24 h. In outline: as §1
Another assay relates to L. lactis MK66. The assay is classed as cell-based. Particulars: MK66, 24 h. In a few lines:
as §1

The subject of assay [1] is P. aeruginosa MDR CI 1995. The assay is classed as cell-based. As to conditions: MDR CI 1995, 24 h. In a few lines:
as §1

The next assay relates to E. coli SQ110. The assay is classed as cell-based. As to conditions: SQ110, 24 h. In a few lines: as §1
Another assay relates to M. phlei Ac-1221. The assay is classed as cell-based. As to conditions: 24 h. In a few lines:
as §1

For a further assay, the system named is B. licheniformis B-511. The assay is classed as cell-based. Particulars: 24 h. In a few lines: as §1
The subject of assay [2] is L. monocytogenes EGD. The assay is classed as cell-based, Listeria monocytogenes. As to conditions: 24 h. In outline: as §1
The subject of the next assay is L. lactis MK43. The assay is described as follows: Antibacterial activity assay (MIC), two-fold serial dilutions in liquid medium. In kind it is cell-based. Particulars: MHB, 0.1% BSA, 37 °C, 24 h, no visible growth. In a few lines: as §1
In assay [3] the test system is E. coli ML-35p cytoplasmic membrane. The assay is described as follows: Cytoplasmic membrane permeability assay with ONPG. In kind it is cell-based. As to conditions: PBS pH 7.4 with NaCl, 35 °C, absorbance 405 nm, three independent experiments. As to the method: The ability of the peptides to disrupt the integrity of bacterial membranes was assessed using chromogenic substrates that are unable to enter the intact cell. For these assays, E. coli strain ML-35p was chosen that constitutively expresses β-lactamase (secreted into the periplasmic space), β-galactosidase (that is active in cytoplasm), and lacks lactose permease. Nitrocefin, which is a substrate for lactamase, served as an indicator of increased outer membrane permeability. o-Nitrophenyl-β-D-galactopyranoside (ONPG), a substrate for […], was used to assess the integrity of the cytoplasmic membrane. The bacterial cultures were grown to stationary phase in 3% TSB medium at 37 °C overnight. The cells were washed three times with cold 10 mM phosphate-buffered saline (PBS), pH 7.4 ([…], 2.7 mM KCl, 10 mM Na2HPO4, 1.76 mM KH2PO4), and diluted to the concentration of 3.3 × 10^7 CFU/mL with 10 mM PBS (pH 7.4), containing increased concentration of NaCl (1.2%, or 205 mM) and dissolved nitrocefin (Merck-Millipore, Burlington, MA, USA) or ONPG (AppliChem GmbH, Darmstadt, Germany). […] The plate was incubated at 35 °C, 500 rpm, and the absorbance of the hydrolysis products of ONPG or nitrocefin was measured spectrophotometrically at regular intervals at 405 nm or 492 nm, respectively, using AF2200 microplate reader (Eppendorf, Hamburg, Germany). […]

Assay [4] has as its system L. monocytogenes EGD. The assay is described as follows: Agar diffusion (spot-on-lawn) assay. The assay is classed as cell-based, Listeria monocytogenes. Particulars: 1–10 µg peptide spotted on 3% TSB agar, 37 °C, 24 h. The protocol:
Additionally, the activity of bacteriocins against L. monocytogenes EGD was qualitatively determined using agar diffusion (“spot-on-lawn”) assay. An amount of 5 µL of water solutions containing 1–10 µg of purified bacteriocins were applied to agar plates containing 3% TSB medium with mid-log phase culture of L. monocytogenes EGD diluted to a OD600 of about 0.001 (≅7 × 10^5 CFU/mL) and incubated overnight at 37 °C for 24 h. Antibiotic tetracycline (0.5 µg) was used as a positive control. The formation of visible zones of bacterial growth inhibition in places where bacteriocins were added indicated the presence of antimicrobial activity.

Positions of bridges follow the written chain, without caps; N, C: chain ends. No end group written: not given here.

Regarding “TYYGNGVSCNKKGCSVDWGKAISIIGNNSAANLATGGAAGWKS (disulfide 9-14) [Avicin A]”, the “Minimum Inhibitory Concentration” value with E. coli ML-35p, in the assay with A. baumannii XDR CI 2675, in the assay with S. aureus 209P, in the assay with E. coli ATCC 25922, in the assay on M. luteus Ac-2229 and with B. subtilis B-886 was above 32 µM throughout. In addition, the “Minimum Inhibitory Concentration” value (with E. coli XDR CI 1057; with L. lactis MK66; in assay [1]; in the assay with E. coli SQ110; in the assay on M. phlei Ac-1221; with B. licheniformis B-511) was above 32 µM each time. For the same sequence, the “Minimum Inhibitory Concentration” value in the assay with L. monocytogenes EGD [2] is given as below 0.125 µM; in the assay with L. lactis MK43, above 32 µM. The “Effect on cytoplasmic membrane integrity (ONPG hydrolysis kinetics)” value in assay [3] is given as “melittin >> acidocin A ≈ pediocin box mutants > peptides without a disulfide bond > avicin A >> AviA(T)”. Moreover, the “Antimicrobial activity, zones of growth inhibition (qualitative)” value in the assay with L. monocytogenes EGD [4] is recorded as “high activity”; with L. monocytogenes EGD [4] (listed as avicin A), “presence of such activity”.
